From patent US20040063156A1, “Materials and methods relating to the diagnosis and treatment of diabetes and obesity” (Rodaris Pharmaceuticals Limited, priority 1996, published 2004)

Assay: Urinary excretion of IPG P-type in diabetic patients treated with metformin
Type: in vivo, human
Settings: overweight/obese NIDDM patients on metformin, urine, FIGS. 5A,B
Source text: A cross-sectional study was undertaken with random spot samples collected at outpatients clinics. The patients included NIDDM subjects controlled by diet alone, by sulphonylureas, by metformin, by insulin or a combination of any of these treatments. Only a limited number of IDDM subjects were available. In the present survey, male subjects were used, this avoided complications arising from varying hormone profiles in women of different ages, in particular with or without HRT or contraceptive pills. […] In addition to the measurement of IPG P-type and IPG A-type in urine the following clinical data was made available: […]

CN(C)C(=N)N=C(N)N [metformin]
effect on pattern of excretion of IPG P-type: fails to restore the pattern of excretion of IPG P-type to normal
